According to ChEMBL document CHEMBL1133387, “Secondary amines as new pharmacophores for macrofilaricidal drug design” (2000):

Tests used:
Type in all cases: functional
Acanthocheilonema viteae [1] = assay: Compound was tested in vivo for anti-filarial activity against A. viteae through oral route of administration at 200 mg/kg for 5 days and sterilization of inactive worms was observed
Acanthocheilonema viteae [2] = assay: Compound was tested in vivo for anti-filarial activity against A. viteae through oral route of administration at 200 mg/kg for 5 days and microfilaricidal response was observed
Acanthocheilonema viteae [3] = assay: Compound was tested in vivo for anti-filarial activity against A. viteae through oral route of administration at 200 mg/kg for 5 days and macrofilaricidal response was observed
Acanthocheilonema viteae [4] = assay: Compound was tested in vivo for anti-filarial activity against A. viteae through oral route of administration at 200 mg/kg for 5 days and sterilization of female worms was observed

Row | SMILES | Activity (Acanthocheilonema viteae [1]) | Reduction (Acanthocheilonema viteae [2]) | Reduction (Acanthocheilonema viteae [3]) | Activity (Acanthocheilonema viteae [4])
1 | CCCCN(CCCC)c1ccc(F)cc1 | 50% | 81% | 0% | –
2 | CCCCN(CCCC)C1CCCCC1 | – | 93% | 0% | 50%
3 | CCCCCCNC1CCCCC1 | – | 0% | 100% | 0%
4 | CCCCCCNc1ccc(F)c(Cl)c1 | – | 50% | 88% | 0%
5 | CCCCN(CCCC)c1ccccc1 | 55% | 77% | 0% | –
6 | CCCCCCNc1ccc(F)cc1 | – | 0% | 50% | 0%
7 | CCCCCCCNc1ccccc1 | – | 69% | 0% | 0%
8 | CCCCNc1ccc(F)c(Cl)c1 | 0% | 32% | 0% | –
9 | CCCCCCNc1ccccc1 | – | 58% | 50% | 0%
